Data as given in the supplement of paper PMC10307832.

Legend:
Test in all cases: relative viability (nuclei count vs DMSO), 5 days (fraction); higher = more cells survive
Cabozantinib + Olaparib = compound: COc1cc2nccc(Oc3ccc(NC(=O)C4(C(=O)Nc5ccc(F)cc5)CC4)cc3)c2cc1OC [Cabozantinib] + O=C(c1cc(Cc2n[nH]c(=O)c3ccccc23)ccc1F)N1CCN(C(=O)C2CC2)CC1 [Olaparib] (partner 8 µM)
In short: (§1)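 Nuclei were stained with Hoechst during a one-step fixation (final 0.05% Triton X-100, 1% formaldehyde, 1 ug/ml Hoechst) carried out 5 days after dosing, then counted on 4× images. The cells, lung cancer lines in 1536-well plates, had been dosed by pin tool the day after seeding with one drug alone or a fixed anchor-drug dose plus five library-drug doses (not always all listed) in √10 steps. Relative viability is the nuclei count in treated wells divided by that in vehicle wells, and each value is the median of duplicate plates.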

Cabozantinib + Lapatinib = compound: COc1cc2nccc(Oc3ccc(NC(=O)C4(C(=O)Nc5ccc(F)cc5)CC4)cc3)c2cc1OC [Cabozantinib] + CS(=O)(=O)CCNCc1ccc(-c2ccc3ncnc(Nc4ccc(OCc5cccc(F)c5)c(Cl)c4)c3c2)o1 [Lapatinib] (partner 2 µM)
In short: as §1

Kobe2602 + Pictilisib = compound: C1=CC(=CC=C1NC(=S)NNC2=C(C=C(C=C2[N+](=O)[O-])C(F)(F)F)[N+](=O)[O-])F [Kobe2602] + CS(=O)(=O)N1CCN(Cc2cc3nc(-c4cccc5[nH]ncc45)nc(N4CCOCC4)c3s2)CC1 [Pictilisib] (partner 1 µM)
In short: as §1

Kobe2602 + Palbociclib = compound: C1=CC(=CC=C1NC(=S)NNC2=C(C=C(C=C2[N+](=O)[O-])C(F)(F)F)[N+](=O)[O-])F [Kobe2602] + CC(=O)c1c(C)c2cnc(Nc3ccc(N4CCNCC4)cn3)nc2n(C2CCCC2)c1=O [Palbociclib] (partner 0.5 µM)
In short: as §1

Cell Line	relative viability (Cabozantinib + Olaparib; first compound 0.02 µM)	relative viability (Cabozantinib + Olaparib; first compound 0.06325 µM)	relative viability (Cabozantinib + Olaparib; first compound 0.2 µM)	relative viability (Cabozantinib + Olaparib; first compound 0.6325 µM)	relative viability (Cabozantinib + Olaparib; first compound 2 µM)	relative viability (Cabozantinib + Lapatinib; first compound 0.02 µM)	relative viability (Cabozantinib + Lapatinib; first compound 0.06325 µM)	relative viability (Cabozantinib + Lapatinib; first compound 0.2 µM)	relative viability (Cabozantinib + Lapatinib; first compound 0.6325 µM)	relative viability (Cabozantinib + Lapatinib; first compound 2 µM)	relative viability (Kobe2602 + Pictilisib; first compound 0.2 µM)	relative viability (Kobe2602 + Pictilisib; first compound 0.6325 µM)	relative viability (Kobe2602 + Pictilisib; first compound 2 µM)	relative viability (Kobe2602 + Pictilisib; first compound 6.325 µM)	relative viability (Kobe2602 + Pictilisib; first compound 20 µM)	relative viability (Kobe2602 + Palbociclib; first compound 0.2 µM)	relative viability (Kobe2602 + Palbociclib; first compound 0.6325 µM)	relative viability (Kobe2602 + Palbociclib; first compound 2 µM)	relative viability (Kobe2602 + Palbociclib; first compound 6.325 µM)	relative viability (Kobe2602 + Palbociclib; first compound 20 µM)
HCC-366	0.597	0.464	0.395	0.4	0.335	1.08	1.07	1.05	1.13	0.957	0.0894	0.176	0.0839	0.141	0.211	0.377	0.344	0.35	0.384	0.395
NCI-H3122	0.636	0.655	0.617	0.527	0.633	1.01	1.01	1.02	1.03	0.954	0.575	0.599	0.522	0.583	0.702	0.184	0.169	0.194	0.201	0.212
NCI-H1650	0.831	0.958	0.713	0.753	0.809	0.788	0.916	0.904	0.708	0.568	0.554	0.806	0.635	0.658	0.597	0.36	0.35	0.365	0.366	0.261
NCI-H1355	0.748	0.747	0.775	0.771	0.714	0.825	1.12	1.02	0.979	1.03	0.358	0.526	0.451	0.429	0.42	0.341	0.367	0.385	0.398	0.406
NCI-H2170	0.66	0.682	0.538	0.576	0.684	0.263	0.302	0.16	0.353	0.27	0.325	0.327	0.329	0.324	0.344	0.429	0.388	0.375	0.392	0.393
NCI-H1734	0.67	0.646	0.711	0.635	0.584	0.98	1.09	0.984	1.08	1.01	0.439	0.475	0.464	0.454	0.533	0.364	0.412	0.325	0.607	0.334
LXF-289	1.13	1.22	1.06	0.979	1.07	0.91	0.922	0.896	0.918	0.92	0.82	0.814	0.693	0.862	0.799	0.585	0.597	0.59	0.556	0.62
SK-LU-1	0.605	0.559	0.488	0.437	0.38		0.539	0.929	0.774	0.634	0.613	0.727	0.624	0.578	0.513	0.396	0.402	0.338	0.428	0.459
NCI-H2087	0.702	0.643	0.622	0.523	0.605	1.09	1.18	1.02	1.01	0.982	0.86	0.832	0.78	0.841	0.95	0.202	0.258	0.21	0.297	0.237
SK-MES-1	0.767	0.845	0.689	0.684	0.694	0.468	0.497	0.42	0.448	0.396	0.348	0.362	0.346	0.345	0.362	0.323	0.338	0.335	0.28	0.201
HCC-78		0.886	0.753	0.443	0.405	0.458	0.922	0.348	0.305	0.286	0.246	0.255		0.212	0.211	0.522	0.446	0.479	0.535	0.52
NCI-H1793	1.01	0.899		0.756	0.599	0.95	1.15	0.571	0.508	0.594	0.387	0.381	0.32	0.346	0.339	0.326	0.318	0.304	0.31	0.293
NCI-H2228	0.769	0.924	0.742	0.602	0.573	1.08	1.41	1.11	1	1.06	0.552	0.372	0.334	0.334	0.33	0.843	0.625	0.687	0.691	0.838
H3255	0.583	0.613		0.599	0.611	0.182	0.234		0.366	0.217	0.533	0.451	0.509	0.486	0.509	0.336	0.337	0.333	0.273	0.303
HCC-15	0.745	0.755	0.73	0.719	0.692	0.85	0.879	0.783	0.843	0.965	0.816	0.848	0.738	0.78	0.707	0.698	0.72	0.662	0.547	0.618
PC-14	0.254	0.33		0.269	0.307	0.27	0.3		0.273	0.27	0.63	0.674	0.592	0.637	0.745	0.502	0.51	0.539	0.455	0.32
NCI-H2023	0.483	0.545	0.383	0.429	0.433	0.473	0.74	0.708	0.552	0.591	0.259	0.269	0.223	0.215	0.228	0.33	0.41	0.405	0.32	0.255
HCC-44	0.988	1.02	0.964	0.997	1	1.09	1.12	1	1.11	1.04	0.63	0.623	0.684	1.54	0.662	0.988	0.932	0.975	0.924	0.887
COR-L23	0.366	0.399	0.39	0.37	0.351	1.04	1.14	0.947	1.12	0.878	0.766	0.695	0.811	0.837	0.832	0.31	0.296	0.275	0.318	0.333
EMC-BAC-2	0.496	0.499	0.531	0.472	0.485	0.841	0.927	0.88	0.879	0.973	0.503	0.6	0.548	0.569	0.558	0.522	0.543	0.494	0.566	0.525
NCI-H1395	0.439	0.466	0.497	0.46	0.454	0.913	1.03	0.948	1.1	0.905	0.612	0.664	0.617	0.65	0.816	0.636	0.69	0.638	0.589	0.647
NCI-H23		0.386	0.345	0.304	0.348		1.37	1.07	1.04	0.885	0.47	0.581	0.491	0.516	0.497	0.559	0.568	0.446	0.522	0.544
NCI-H322M	0.831	0.902	0.695	0.781	0.675	0.454	0.632		0.584	0.58	0.566	0.533	0.534	0.511	0.554	0.477	0.535	0.485	0.491	0.559
NCI-H2126	0.937	0.932	0.865	0.938	0.946	0.612	0.843	0.723	0.75	0.77	0.508	0.508	0.485	0.475	0.492	0.379	0.357	0.343	0.346	0.35
NCI-H647	0.715	0.656	0.523	0.537	0.51	1.29	1.45	1.15	1.13	0.734	0.432	0.483	0.455	0.425	0.567	0.334	0.467	0.373	0.425	0.409
LU99A	0.304	0.258	0.283	0.281	0.261	0.896	1.07	0.985	0.996	0.931	0.317	0.365	0.312	0.383	0.359	0.424	0.488	0.411	0.473	0.451
NCI-H1666	0.821	0.802	0.719	0.715	0.732	0.693	0.621	0.677	0.712	0.595	0.345	0.5		0.276	0.471	0.644	0.628	0.596	0.647	0.619
